Drawing on ChEMBL document CHEMBL1141269, “Pordamacrines A and B, alkaloids from Daphniphyllum macropodum” (2007), this text covers Activity for 2 compounds.

In this assay the test system is Thoracic aorta. The assay is described as follows: Vasorelaxant activity against norepinephrine-induced contraction in Wistar rat thoracic aorta at 100 uM. Details: scale not given: the % may be the effect or the level left. The class given is functional.

Compound `COC(=O)[C@@H]1C[C@@]23C4=C(CCC5CN6C[C@@H](C)C(O)(C=CC52CO)C63O)CC[C@@H]41` (some centres not stated) [PORDAMACRINE A] came in with an Activity of 50%.

The compound `COC(=O)[C@@H]1C[C@@]23C4=C(CCC5CN6C[C@@H](C)C(C=CC52CO)C63O)CC[C@@H]41` (some centres not stated) [PORDAMACRINE B] displayed an Activity of 47.1%.
